In PubChem BioAssay (NCI):
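Tested at 5 concentrations; 48 h exposure; 96-well plates; endpoints linearly interpolated, else capped at highest concentration. The concentration for 50% growth inhibition is given as GI50. At the TGI there is no net growth.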

How the values were obtained:
Assay in all cases: inhibition of tumour cell growth, NCI panel, 48 h
SK-MEL-5 melanoma = test system: SK-MEL-5 melanoma
HOP-62 NSCLC = test system: HOP-62 NSCLC
PC-3 prostate = test system: PC-3 prostate
HCT-116 colon = test system: HCT-116 colon
MCF7 breast = test system: MCF7 breast
MDA-MB-435 = test system: MDA-MB-435
SNB-19 CNS = test system: SNB-19 CNS
SK-MEL-28 melanoma = test system: SK-MEL-28 melanoma
HCC-2998 colon = test system: HCC-2998 colon
SF-268 CNS = test system: SF-268 CNS

SMILES | GI50 (SK-MEL-5 melanoma) [µM] | TGI (SK-MEL-5 melanoma) [µM] | GI50 (HOP-62 NSCLC) [µM] | TGI (HOP-62 NSCLC) [µM] | GI50 (PC-3 prostate) [µM] | TGI (PC-3 prostate) [µM] | GI50 (HCT-116 colon) [µM] | TGI (HCT-116 colon) [µM] | GI50 (MCF7 breast) [µM] | TGI (MCF7 breast) [µM] | GI50 (MDA-MB-435) [µM] | TGI (MDA-MB-435) [µM] | GI50 (SNB-19 CNS) [µM] | TGI (SNB-19 CNS) [µM] | GI50 (SK-MEL-28 melanoma) [µM] | TGI (SK-MEL-28 melanoma) [µM] | GI50 (HCC-2998 colon) [µM] | TGI (HCC-2998 colon) [µM] | GI50 (SF-268 CNS) [µM] | TGI (SF-268 CNS) [µM]
CCn1c(-c2nonc2N)nc2c(N3CCCC3)nccc21 | 19 | > 25 | 12.3 | > 25 | 14.4 | > 25 | 8.47 | > 25 | 5.27 | > 25 | 12.2 | > 25 | 19.4 | > 25 | > 25 | > 25 | > 25 | > 25 | 13.3 | > 25
COc1ccc(-c2cc(=O)c3c(O)c(OC)c(OC)c(OC)c3o2)cc1 |  | > 100 |  | > 100 |  | > 100 |  | > 100 |  | > 100 |  | > 100 |  | > 100 |  | > 100 |  | > 20.4 |  | > 100
NC(Cc1ccccc1)c1nccs1 (stereo not given) |  | > 100 |  | > 100 |  | > 100 |  | > 100 |  | > 100 |  | > 100 |  | > 100 |  | > 100 |  | > 100 |  | > 100
CC[C@H](C)[C@H](NC(=O)c1cccn1C)C(=O)N(C)[C@H](C[C@@H](OC(C)=O)c1nc(C(=O)N[C@@H](Cc2ccccc2)C[C@H](C)C(=O)OC)cs1)C(C)C | 0.103 | 0.736 | 0.32 | > 33.3 | 0.141 | > 33.3 | 0.127 | > 11.3 | 0.0807 | > 33.3 | 0.0348 | 0.168 | 0.196 | > 33.3 | 1.5 | > 33.3 | 0.166 | > 33.3 | 0.351 | > 33.3
O=C1NC(c2ccccc2)C2(C(=O)O)CN(C3CC3)c3cc(N4CCNCC4)c(F)cc3C2N1 (stereo not given) | > 100 | > 100 | > 100 | > 100 | > 100 | > 100 | > 100 | > 100 | > 100 | > 100 | > 100 | > 100 | > 100 | > 100 | > 100 | > 100 | > 100 | > 100 | > 100 | > 100
C=C1C(=O)O[C@H]2C[C@@H]1C(=O)CC(C)CCCC(C)=CCC[C@@]2(C)O (stereo not given in full) |  | > 25 |  | > 25 |  | > 25 |  | > 25 |  | > 25 |  | > 25 |  | > 25 |  | > 25 |  | > 25 |  | > 25
CC1=NOC(=O)/C1=C/c1ccc2c(c1)OCO2 |  | > 100 |  | 40.9 |  | 48.5 |  | > 100 |  | > 100 |  | 56.6 |  | 95 |  | > 100 |  | 95.5 |  | > 100
CN(C)CCCNc1nc2ccccc2c2[nH]c3ccccc3c12 | 3.02 | 8.33 | 0.497 | 3.77 | 0.897 | 2.97 | 0.222 | 1.67 | 0.417 | 1.81 | 1.28 | 3.89 | 1.57 | 6.2 | 2.04 | 5.84 | 0.251 | 0.942 | 1.39 | 4.1
CS(=O)(=O)N(c1cc(-c2ccc3ncnc(Nc4ccc(F)c(Cl)c4)c3c2)cnc1Cl)S(C)(=O)=O | 0.978 | 2.42 | 0.957 | 14.7 | 1.1 | 7.9 | 1.68 | 6.7 | 0.246 | 3.58 | 1.83 | 17.2 | 0.897 | 9.9 | 0.54 | 4.93 | 1.58 | 8.43 | 0.868 | 7.61
Cc1cc(O)c(-c2ccc([C@@H](C)CN(C)C)cc2)c2c1[nH]c(=O)c1sccc12 | 0.805 | 3.98 | 0.886 | 5.57 | 0.667 | 18 | 0.406 | 8.87 | 0.103 | 3.14 | 0.981 | 15.2 | 0.724 | 23.3 | 1.33 | 5.56 | 1.06 | 12.6 | 1.14 | 14.8
C[C@@H]1CC[C@@]2(NC1)O[C@H]1C[C@H]3[C@@H]4CC[C@H]5C[C@@H](O)CC[C@]5(C)[C@H]4CC[C@]3(C)[C@H]1[C@@H]2C |  | > 100 |  | > 100 |  | > 100 |  | > 100 |  | > 100 |  | > 100 |  | > 100 |  | > 100 |  | > 100 |  | > 100
C=C1CCC2C3(C)COC(c4ccccc4Cl)OC3CCC2(C)C1/C=C/C1=CCOC1=O (stereo not given) | 3.78 | 21 | > 100 | > 100 | 3.17 | > 100 | 4.48 | > 100 | 4.38 | > 100 | 9.89 | > 100 | > 100 | > 100 | > 100 | > 100 | 21.1 | > 100 | > 100 | > 100
Nc1ccc(/C=C/c2ccc3cccnc3c2)cc1 |  | > 100 |  | > 100 |  | > 100 |  | > 100 |  | > 100 |  | > 100 |  | > 100 |  | > 100 |  | > 100 |  | > 100
COc1cc2nccc(Oc3ccc(NC(=O)c4cn(C(C)C)c(=O)n(-c5ccc(F)cc5)c4=O)cc3F)c2cc1OC | > 100 | > 100 | > 69.4 | > 100 | 6.28 | > 100 | 5.4 | > 100 | > 100 | > 100 | > 100 | > 100 | > 100 | > 100 | 3.19 | 18.1 | > 100 | > 100 | 4.51 | > 51.6
CNC(=O)c1cncc(/C=C/c2ccccc2Cl)c1 | > 25 | > 25 | > 25 | > 25 | > 25 | > 25 | > 25 | > 25 | > 25 | > 25 | > 25 | > 25 | > 25 | > 25 | > 25 | > 25 | > 25 | > 25 | > 25 | > 25
